# Experiment: logP(HCOOH) reported with HPLC/MS
# [1] = method [b]: LC-MS, pH 2.7 with 0.1% formic acid in water and acetonitrile (0.1% formic acid), linear gradient 10% to 95% acetonitrile
# [2] = reversed phase HPLC column, pH 2.7, log p, method [b]: LC-MS at pH 2.7 with 0.1% formic acid in water and acetonitrile (0.1% formic acid), linear gradient 10% to 95% acetonitrile
# [3] = method [b]: LC-MS at pH 2.7, 0.1% formic acid in water and acetonitrile, linear gradient 10% to 95% acetonitrile
# [4] = HCOOH (formic acid), logP(HCOOH), HPLC/MS
# [5] = method [b]: LC-MS at pH 2.7 with 0.1% formic acid in water and acetonitrile (0.1% formic acid), linear gradient 10% to 95% acetonitrile
# [6] = reversed phase HPLC column, pH 2.7, log p, method [b]: LC-MS at pH 2.7, 0.1% formic acid in water and acetonitrile, linear gradient 10% to 95% acetonitrile
# [7] = method [a]: HPLC on reversed phase columns, pH 2.3 with 0.1% phosphoric acid and acetonitrile as eluent
compound,measurement,setting,value
Cc1sc(C#CCC2CCCCC2)nc1CON=C(c1ccccc1)c1nnnn1C [Example 184],log p,[1],5.62^[b]
CCCCCCNc1nc(CON=C(c2cccc(SC)c2)c2nnnn2C)cs1 [Example 297],chromatographic logP,[2],3.92
CC(C)C(C)NC(=O)c1cccc(CON=C(c2ccccc2)c2nnnn2C)n1 (centres unmarked) [Example 75],log p,[3],3.44^[b]
Cn1nnnc1C(=NOCc1cccc(C#Cc2ccccc2Cl)n1)c1ccccc1 [Example 215],log p,[1],4.36^[b]
Cc1nnnn1C(=NOCc1csc(C#CCCc2ccccc2)n1)c1ccccc1 [Example 168],log p,[1],4.44^[b]
Cn1nnnc1C(=NOCc1csc(C#CCCO)n1)c1ccccc1 [Example 198],log p,[1],2.3^[b]
Cc1nnnn1C(=NOCc1cccc(NC(=S)NCc2ccc(Cl)c(Cl)c2)n1)c1ccccc1 [Example 4],log p,[3],4.09^[b]
CSc1cccc(C(=NO)c2nnnn2C)c1 [N-hydroxy-1-[3-(methylsulfanyl)phenyl]-1-(1-methyl-1H-tetrazol-5-yl)methanimine],chromatographic logP,[4],1.98
CCCCCOC(=O)NCc1cccc(CON=C(c2ccccc2)c2nnnn2C)n1 [Example 60],log p,[3],3.48^[b]
Cn1nnnc1C(=NOCc1csc(C#CC2CC2)n1)c1cccc(F)c1 [Example 148],log p,[1],3.71^[b]
CCCC#Cc1nc(CON=C(c2ccccc2)c2nnnn2C)c(C)s1 [Example 182],log p,[1],4.24^[b]
COC[C@H](C)NC(=O)c1cccc(CON=C(c2ccccc2)c2nnnn2C)n1 [Example 83],log p,[3],2.7^[b]
"CCCCCONc1cccc(CON=C(c2ccccc2)c2nnnn2C)n1 [Example 269, 6-[({[(1-methyl-1H-tetrazol-5-yl)(phenyl)methylene]amino}oxy)methyl]-(pentyloxy)pyridin-2-amine]",logP(HCOOH),HPLC/MS,3.87
same,log p,[5],3.87^[b]
"COc1ccc(CON=C(c2ccccc2)c2nnnn2C)nc1Br [Example 125, N-[(6-bromo-5-methoxypyridin-2-yl)methoxy]-1-(1-methyl-1H-tetrazol-5-yl)-1-phenylmethanimine]",chromatographic logP,[4],3.13
same,chromatographic logP,[6],3.13
Cn1nnnc1C(=NOCc1cccc(C#CCc2cccc(F)c2)n1)c1ccccc1 [Example 112],log p,[3],4.16^[b]
Cn1nnnc1C(=NOCc1csc(C#Cc2cccc(C#N)c2)n1)c1ccccc1 [Example 259],log p,[1],3.76^[b]
CCCCCCN(C=O)c1cccc(C)n1 [N-hexyl-N-(6-methylpyridin-2-yl)formamide],chromatographic logP,[4],3.46
CCc1ccc(C#Cc2cccc(CON=C(c3ccccc3)c3nnnn3C)n2)cc1 [Example 230],log p,[1],4.81^[b]
Cn1nnnc1C(=NOCc1csc(C#Cc2ccccc2F)n1)c1ccccc1 [Example 260],log p,[1],4.15^[b]
Cn1nnnc1C(=NOCc1cccc(NCCCCC2CCCCC2)n1)c1ccccc1 [Example 180],log p,[7],3.55^[a]
Cn1nnnc1C(=NOCc1csc(C#Cc2ccc(C#N)cc2)n1)c1ccccc1 [Example 191],log p,[1],3.76^[b]
Cn1nnnc1C(=NOCc1nc(C#CCCCC#N)sc1Cl)c1ccccc1 [Example 122],log p,[3],3.58^[b]
Cn1nnnc1C(=NOCc1cccc(NOCc2ccccc2)n1)c1ccccc1 [Example 285],log p,[5],3.14^[b]
Cn1nnnc1C(=NOCc1nc(C#CCC2CCCCC2)ccc1F)c1ccccc1 [Example 97],log p,[3],5.28^[b]
Cn1nnnc1C(=NOCc1cccc(NCC2CCC2)n1)c1ccccc1 [Example 178],log p,[7],1.98^[a]
Cc1nnnn1C(=NOCc1csc(C#CCC2CCCCC2)n1)c1ccccc1 [Example 169],log p,[1],5.41^[b]
"Cc1nnnn1C(=NOCc1csc(Br)n1)c1ccccc1 [Example 145, N-[(2-bromo-1,3-thiazol-4-yl)methoxy]-1-(5-methyl-1H-tetrazol-1-yl)-1-phenylmethanimine]",chromatographic logP,"HPLC, logP(HCOOH), HPLC/MS",3.15
same,chromatographic logP,"reversed phase HPLC column, pH 2.7, log p, method [b]: LC-MS, pH 2.7 with 0.1% formic acid in water and acetonitrile (0.1% formic acid), linear gradient 10% to 95% acetonitrile",3.15
CSc1cccc(C(=O)c2nnnn2C)c1 [[3-(methylsulfanyl)phenyl](1-methyl-1H-tetrazol-5-yl)methanone],chromatographic logP,[4],2.52
CCCCON(C(=O)OC(C)(C)C)c1cccc(CON=C(c2ccccc2)c2nnnn2C)n1 [Example 280],log p,[5],4.75^[b]
Cn1nnnc1C(=NOCc1nc(C#CCCCc2ccccc2)ccc1F)c1ccccc1 [Example 104],log p,[3],4.84^[b]
CN(C)c1ccc(C#Cc2cccc(CON=C(c3ccccc3)c3nnnn3C)n2)cc1 [Example 251],log p,[1],4.29^[b]
Cn1nnnc1C(=NOCc1csc(NCC2CC2)n1)c1ccccc1 [Example 162],log p,[1],2.26^[b]
Cn1nnnc1C(=NOCc1csc(C#CCC2CCCCC2)n1)c1cccc(F)c1 [Example 147],log p,[1],5.42^[b]
"CCCCCON(C(=O)OC(C)(C)C)c1cccc(CON=C(c2ccccc2)c2nnnn2C)n1 [Example 268, tert-butyl {6-[({[(1-methyl-1H-tetrazol-5-yl)(phenyl)methylene]amino}oxy)methyl]pyridin-2-yl}(pentyloxy)carbamate]",chromatographic logP,[4],5.25
same,chromatographic logP,[2],5.25
CCCC(C)C#Cc1nc(CON=C(c2ccccc2)c2nnnn2C)c(C)s1 (centres unmarked) [Example 188],log p,[1],5.06^[b]
CC(C)CCC#Cc1ccc(F)c(CON=C(c2ccccc2)c2nnnn2C)n1 [Example 101],log p,[3],3.13^[b]
CC(=O)OCCCC#Cc1nc(CON=C(c2ccccc2)c2nnnn2C)cs1 [Example 137],log p,[7],3.17^[a]
CCCOc1ccc(C#Cc2nc(CON=C(c3ccccc3)c3nnnn3C)cs2)cc1 [Example 256],log p,[1],5.03^[b]
CCCCCCNc1cccc(CON=C(c2cccc(SC)c2)c2nnnn2C)n1 [Example 296],log p,[5],2.78^[b]
CCCCc1ccc(C#Cc2nc(CON=C(c3ccccc3)c3nnnn3C)cs2)cc1 [Example 202],log p,[1],5.82^[b]
"Cc1cccc(C2OCCO2)[n+]1[O-] [2-(1,3-dioxolan-2-yl)-6-methylpyridine 1-oxide]",chromatographic logP,[4],0.45
CC(C)(C)OC(=O)N(CCC1CCCCC1)c1cccc(CBr)n1 [tert-butyl [6-(bromomethyl)pyridin-2-yl](2-cyclohexylethyl)carbamate],chromatographic logP,[4],6.79
Cn1nnnc1C(=NOCc1cccc(C#CC2CC2)n1)c1ccccc1 [Example 109],log p,[3],3.46^[b]
COC=CC#Cc1nc(CON=C(c2ccccc2)c2nnnn2C)cs1 [Example 136],log p,[7],3.06^[a]
COc1ccc(CON=C(c2ccccc2)c2nnnn2C)nc1C#CCC1CCCC1 [Example 128],log p,[3],4.46^[b]
COc1ccc(CON=C(c2ccccc2)c2nnnn2C)nc1C#CC1CCCCC1 [Example 132],log p,[1],4.44^[b]
COc1ccc(CON=C(c2ccccc2)c2nnnn2C)nc1C#CCCCc1ccccc1 [Example 130],log p,[3],4.44^[b]
"Cn1nnnc1C(=NOCc1nc(Br)ccc1F)c1ccccc1 [Example 96, N-[(6-bromo-3-fluoro-pyridin-2-yl)methoxy]-1-(1-methyl-1H-tetrazol-5-yl)-1-phenylmethanimine]",chromatographic logP,"formic acid (HCOOH), logP(HCOOH), HPLC/MS",3.27
same,chromatographic logP,[6],3.27
CSc1cccc(C(=NOCc2cccc(N)n2)c2nnnn2C)c1 [6-{[({[3-(methylsulfanyl)phenyl](1-methyl-1H-tetrazol-5-yl)methylene}amino)oxy]methyl}pyridin-2-amine],chromatographic logP,[4],1.42
CCCCCNC(=O)c1cccc(CON=C(c2ccccc2)n2nnnc2C)n1 [Example 16],log p,[3],3.52^[b]
Cn1nnnc1C(=NOCc1csc(C#Cc2cccc(F)c2)n1)c1ccccc1 [Example 264],log p,[1],4.19^[b]
